Data: patent publication US6881419B2, “Vitamin formulation for enhancing bone strength” (priority 2002, dated 2005)

Test system: osteoporosis
Test: Case Study-1: bone scan, tolerability and energy in a subject with osteoporosis and rheumatoid arthritis
Details: person, placed on it at diagnosis of osteoporosis
Text: The exemplary case studies utilize subjects ranging from fifty-one (51) to eighty-three (83) years of age.

NCCCC(O)(P(=O)([O-])O)P(=O)(O)O.[Na+] [Fosimex]
Tolerability (stomach problems which developed into an ulcer): unable to tolerate
